The values that follow are results of earlier work, collected in US10028917B2, “Beclomethasone dipropionate compositions in modified-release gastro-resistant microspheres and process for obtaining them” (SOFAR SPA, priority 2010, dated 2018).

For this data set the following is noted: relative to hydrocortisone.

`CCC(=O)OCC(=O)[C@@]1(OC(=O)CC)[C@@H](C)C[C@H]2[C@@H]3CCC4=CC(=O)C=C[C@]4(C)[C@@]3(Cl)[C@@H](O)C[C@@]21C` [BDP, Beclomethasone dipropionate]: the “times more powerful than hydrocortisone” value is on record as 500 times.
